Values of other authors as cited in article PMC5447021, “TNF Lectin-Like Domain Restores Epithelial Sodium Channel Function in Frameshift Mutants Associated with Pseudohypoaldosteronism Type 1B” (Frontiers in Immunology, 2017).

Target: T1, αβγ-hENaC (Homo sapiens, UniProt P37088+P51168+P51170)
T1 construct: expressed in transfected cells; host or cells: HEK-293
T1 sequence (P37088 1-669): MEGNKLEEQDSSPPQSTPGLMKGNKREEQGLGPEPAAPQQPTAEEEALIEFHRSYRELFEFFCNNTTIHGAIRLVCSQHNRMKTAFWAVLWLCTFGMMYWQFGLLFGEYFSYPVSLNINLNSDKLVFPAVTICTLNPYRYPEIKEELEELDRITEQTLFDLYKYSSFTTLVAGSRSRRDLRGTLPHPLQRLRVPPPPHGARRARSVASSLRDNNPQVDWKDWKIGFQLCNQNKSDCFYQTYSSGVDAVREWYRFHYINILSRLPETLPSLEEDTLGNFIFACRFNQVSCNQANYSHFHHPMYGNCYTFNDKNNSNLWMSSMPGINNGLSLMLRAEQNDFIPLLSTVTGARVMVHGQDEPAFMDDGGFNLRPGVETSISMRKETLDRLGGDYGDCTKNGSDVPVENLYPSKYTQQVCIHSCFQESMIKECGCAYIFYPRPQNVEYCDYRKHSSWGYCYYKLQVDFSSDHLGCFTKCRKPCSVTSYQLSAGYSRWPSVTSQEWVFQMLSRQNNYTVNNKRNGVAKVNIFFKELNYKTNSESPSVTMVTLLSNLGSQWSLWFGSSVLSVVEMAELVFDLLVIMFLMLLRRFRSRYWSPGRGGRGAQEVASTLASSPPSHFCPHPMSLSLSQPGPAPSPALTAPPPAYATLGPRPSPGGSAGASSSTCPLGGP
T1 sequence (P51168 1-640 partner): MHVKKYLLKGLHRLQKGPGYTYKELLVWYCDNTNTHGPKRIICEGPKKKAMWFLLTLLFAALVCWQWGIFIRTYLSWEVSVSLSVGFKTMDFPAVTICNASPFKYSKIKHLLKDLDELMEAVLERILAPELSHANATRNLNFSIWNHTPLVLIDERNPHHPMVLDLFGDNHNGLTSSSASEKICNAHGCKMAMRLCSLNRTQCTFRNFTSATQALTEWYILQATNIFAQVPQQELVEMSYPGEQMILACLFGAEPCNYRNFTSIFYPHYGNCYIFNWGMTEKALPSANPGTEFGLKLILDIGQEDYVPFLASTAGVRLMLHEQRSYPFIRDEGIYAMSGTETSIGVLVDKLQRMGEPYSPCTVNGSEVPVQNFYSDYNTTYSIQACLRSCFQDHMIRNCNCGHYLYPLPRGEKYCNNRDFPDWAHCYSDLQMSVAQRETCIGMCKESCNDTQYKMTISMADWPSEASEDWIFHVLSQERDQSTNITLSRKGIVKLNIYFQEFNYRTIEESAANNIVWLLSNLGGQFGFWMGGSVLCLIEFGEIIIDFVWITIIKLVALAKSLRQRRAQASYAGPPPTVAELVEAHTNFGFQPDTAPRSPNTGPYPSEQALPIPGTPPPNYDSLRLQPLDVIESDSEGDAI
T1 sequence (P51170 1-649 partner): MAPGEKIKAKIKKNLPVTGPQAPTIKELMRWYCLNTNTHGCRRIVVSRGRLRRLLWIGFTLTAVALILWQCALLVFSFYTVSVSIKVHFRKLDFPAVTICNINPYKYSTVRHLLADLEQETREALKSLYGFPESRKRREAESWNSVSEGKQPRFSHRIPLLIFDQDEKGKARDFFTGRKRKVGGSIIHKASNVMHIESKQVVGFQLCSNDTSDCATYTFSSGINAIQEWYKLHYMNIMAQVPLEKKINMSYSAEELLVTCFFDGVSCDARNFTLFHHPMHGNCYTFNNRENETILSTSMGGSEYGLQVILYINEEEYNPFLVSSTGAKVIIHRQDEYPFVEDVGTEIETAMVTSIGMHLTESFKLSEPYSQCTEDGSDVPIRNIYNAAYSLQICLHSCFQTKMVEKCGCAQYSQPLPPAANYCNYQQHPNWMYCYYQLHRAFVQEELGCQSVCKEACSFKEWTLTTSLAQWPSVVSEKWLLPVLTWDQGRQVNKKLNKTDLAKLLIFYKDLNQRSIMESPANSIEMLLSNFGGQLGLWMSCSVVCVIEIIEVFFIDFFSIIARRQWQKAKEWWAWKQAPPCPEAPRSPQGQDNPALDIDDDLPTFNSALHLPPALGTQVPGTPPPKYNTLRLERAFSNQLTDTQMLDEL
Parameters: method as in 2 sources, ref 16 = [16]; PMID 24077967; doi:10.1124/mol.113.089409; 16 Shabbir W Scherbaum-Hazemi P Tzotzos S Fischer B Fischer H Pietschmann H Mechanism of action of novel lung edema therapeutic AP301 by activation of the epithelial sodium channel . Mol Pharmacol ( 2 ||| ref 24 = [24]; PMID 20979368; doi:10.1021/jm100767p; 24 Hazemi P Tzotzos SJ Fischer B Andavan GS Fischer H Pietschmann H Essential structural features of TNF-α lectin-like domain derived peptides for activation of amiloride-sensitive sodium current in A
Conditions: αβγ-hENaC in HEK-293, whole-cell, -100 mV, amiloride-sensitive control current 75.8 ± 4.5 pA, mean ± S.E.; cited from earlier work

Compound: C[C@@H]1NC(=O)CNC(=O)[C@H](CCC(=O)O)NC(=O)[C@@H]2CCCN2C(=O)[C@H]([C@@H](C)O)NC(=O)[C@H](CCC(=O)O)NC(=O)[C@H](CCCNC(=N)N)NC(=O)[C@H](CCC(N)=O)NC(=O)CNC(=O)[C@@H](N)CSSC[C@@H](C(=O)O)NC(=O)[C@H](Cc2ccc(O)cc2)NC(=O)[C@H](Cc2c[nH]c3ccccc23)NC(=O)[C@@H]2CCCN2C(=O)[C@H](CCCCN)NC(=O)[C@H](C)NC(=O)[C@H](CCC(=O)O)NC1=O [solnatide, L-cysteine, L-cysteinylglycyl-L-glutaminyl-L-arginyl-L-α-glutamyl-L-threonyl-L-prolyl-L-α-glutamylglycyl-L-alanyl-L-α-glutamyl-L-alanyl-L-lysyl-L-prolyl-L-tryptophyl-L-tyrosyl-, cyclic (1→17)-disulfide]
- Maximal induced current, solnatide: 953.2 ± 11.5 pA
